Reference: article doi:10.1101/2021.06.10.447714v2 (bioRxiv, 2021)
Each block holds one molecule with its values, some of them ahead of it.

Tests used:
Type in all cases: biochemical
[1] = molecular target: T1, insulin degrading enzyme (IDE) (Homo sapiens, UniProt P14735); experiment: SDS-PAGE assay for ghrelin proteolysis by IDE; details: EDTA added to the enzyme pre-mixture, 50 mM Tris pH 7.3, 37 °C
[2] = molecular target: T1, insulin degrading enzyme (IDE); experiment: Identification of IDE-mediated cleavage sites by HPLC and MALDI-TOF; details: HPLC (C-18) and MALDI-TOF; 50 mM Tris pH 7.3, 37 °C; three runs
[3] = molecular target: T1, insulin degrading enzyme (IDE); experiment: Circular dichroism analysis of insulin degradation by IDE; details: CD at 222 nm and LC, substrate:enzyme ratio 100:1, 37 °C

- inhibition of IDE-mediated ghrelin proteolysis [1]: inhibited
Molecule: O=C(O)CN(CCN(CC(=O)O)CC(=O)O)CC(=O)O [EDTA, ethylenediaminetetraacetate]

- IDE-mediated cleavage sites (initial) [2]: Q13/ Q14, Q14/R15 and possibly Q10/R11
Molecule: CCCCCCCC(=O)OC[C@H](NC(=O)[C@H](CO)NC(=O)CN)C(=O)N[C@@H](Cc1ccccc1)C(=O)N[C@@H](CC(C)C)C(=O)N[C@@H](CO)C(=O)N1CCC[C@H]1C(=O)N[C@@H](CCC(=O)O)C(=O)N[C@@H](Cc1cnc[nH]1)C(=O)N[C@@H](CCC(N)=O)C(=O)N[C@@H](CCCNC(=N)N)C(=O)N[C@H](C(=O)N[C@@H](CCC(N)=O)C(=O)N[C@@H](CCC(N)=O)C(=O)N[C@@H](CCCNC(=N)N)C(=O)N[C@@H](CCCCN)C(=O)N[C@@H](CCC(=O)O)C(=O)N[C@@H](CO)C(=O)N[C@@H](CCCCN)C(=O)N[C@@H](CCCCN)C(=O)N1CCC[C@H]1C(=O)N1CCC[C@H]1C(=O)N[C@@H](C)C(=O)N[C@@H](CCCCN)C(=O)N[C@@H](CC(C)C)C(=O)N[C@@H](CCC(N)=O)C(=O)N1CCC[C@H]1C(=O)N[C@@H](CCCNC(=N)N)C(=O)O)C(C)C [ghrelin]

Molecule: insulin: established IDE substrate, used in CD experiments
- insulin degradation by IDE in 30% TFE [3]: does not degrade
